Measurements: US7875587B2, “Peptide analogues of GIP for treatment of diabetes, insulin resistance and obesity” (UUTECH Limited, priority 2004, dated 2011)
Starred links: 1 amine or outer side, 2 acyl side, 3 side chain; linkers in the order of their positions; H or OH if unused. Non-standard residues stand in square brackets, D forms with d. No end group written: not given here. X1 = O=C([C@H](Cc1ccc(O)cc1)N(C[C@H](O)[C@@H](O)[C@H](O)[C@H](O)CO)[*:1])[*:2]; Hyp = O=C(O)[C@@H]1C[C@@H](O)CN1

Columns and labels:
BRIN-BD11 cells [1] = experiment: GIP-stimulated insulin release from BRIN-BD11 cells (antagonism); format: cell-based; conditions: 5.6 mM glucose, native GIP 10^-7 M
Method: Tissue culture. […] Cells were maintained in sterile tissue culture flasks (Corning Glass Works, Sunderland, UK) at 37° C. in an atmosphere of 5% CO2 and 95% air using an LEEC incubator (Laboratory Technical Engineering, Nottingham, UK). Acute studies of insulin release. Insulin release from BRIN-BD11 cells was determined using cell monolayers ([…]. et al., 1996, Diabetes 45:1132-1140). Cells were harvested with the aid of trypsin/EDTA (Gibco), seeded into 24-multiwell plates (Nunc, Roskilde, Denmark) at a density of 1.0×10^5 cells per well, and allowed to attach overnight at 37° C.

BRIN-BD11 cells [2] = experiment: Acute tests for insulin secretion from BRIN-BD11 cells; format: cell-based
Method: Culture of insulin secreting cells. BRIN-BD11 cells were cultured in sterile tissue culture flasks (Corning, Glass Works, UK) using RPMI-1640 tissue culture medium containing 10% (v/v) foetal calf serum, 1% (v/v) antibiotics (100 U/ml penicillin, 0.1 mg/ml streptomycin) and 11.1 mM glucose. The cells were maintained at 37° C. in an atmosphere of 5% CO2 and 95% air using a LEEC incubator (Laboratory Technical Engineering, Nottingham, UK).
Acute tests for insulin secretion. Before experimentation, the cells were harvested from the surface of the tissue culture flasks with the aid of trypsin/EDTA (Gibco), seeded into 24-multiwell plates (Nunc, Roskilde, Denmark) at a density of 1.5×10^5 cells per well, and allowed to attach overnight at 37° C. Acute tests for insulin release were preceded by 40 minutes pre-incubation at 37° C. in 1.0 ml Krebs Ringer bicarbonate buffer (115 mM NaCl, 4.7 mM KCl, 1.28 mM CaCl2, 1.2 mM KH2PO4, 1.2 mM MgSO4, 10 mM NaHCO3, 5 g/l bovine serum albumin, pH 7.4) supplemented with 1.1 mM glucose. Test incubations were performed (n=12) at two glucose concentrations (5.6 mM and 16.7 mM) with a range of concentrations (10^−13 to 10^−8 M) of GIP or GIP analogues. After 20 minutes incubation, the buffer was removed from each well and aliquots (200 μl) were used for measurement of insulin by radioimmunoassay.

DPP IV = molecular target: T1, DPP IV (Sus scrofa, UniProt P22411); experiment: Degradation of GIP and analogues by DPP IV (HPLC); format: in vitro ADME
T1 construct: purchased Sigma (Poole, Dorset, UK)
Method: Degradation of GIP and Tyr^1-glucitol GIP by DPP IV. HPLC-purified GIP or Tyr^1-glucitol GIP were incubated at 37° C. with DPP-IV (5 mU) for various time periods in a reaction mixture made up to 500 μl with 50 mmol/l triethanolamine-HCl, pH 7.8 (final peptide concentration 1 mmol/l). Enzymatic reactions were terminated after 0, 2, 4 and 12 hours by addition of 5 μl of 10% (v/v) TFA/water. Samples were made up to a final volume of 1.0 ml with 0.12% (v/v) TFA and stored at −20° C. prior to HPLC analysis.
(§1) HPLC analysis of degraded GIP and Tyr^1-glucitol GIP. […] Using 0.1% (v/v) TFA in 70% acetonitrile/H20, the concentration of acetonitrile in the eluting solvent was raised from 0% to 31.5% over 15 min, to 38.5% over 30 minutes and from 38.5% to 70% over 5 minutes, using linear gradients. The absorbance was monitored at 206 nm and peak areas evaluated using a model 2221 LKB integrator. Samples recovered manually were concentrated using a Speed-Vac concentrator.
(§2) Electrospray ionization-mass spectrometry (ESI-MS) was carried out as described in Example 2. Degradation of GIP and novel GIP analogues by DPP IV and human plasma was carried out as described in Example 2.

[3] = Degradation of GIP and analogues by human plasma (HPLC); format: in vitro ADME
Method: Degradation of GIP and Tyr^1-glucitol GIP by human plasma. […] […] The reactions were terminated by addition of 5 μl of TFA and the final volume adjusted to 1.0 ml using 0.1% v/v TFA/water. Samples were centrifuged (13,000 g, 5 minutes) and the supernatant applied to a C-18 Sep-Pak cartridge (Millipore-Waters) which was previously primed and washed with 0.1% (v/v) TFA/water. […] The volume was adjusted to 1.0 ml with 0.12% (v/v) TFA/water prior to HPLC purification.
as §1, §2

Wistar rats = experiment: In vivo plasma glucose and insulin after i.p. glucose with peptide in Wistar rats; set-up: species or system rat
Method: In vivo biological activity of GIP and Tyr^1-glucitol GIP. Effects of GIP and Tyr^1-glucitol GIP on plasma glucose and insulin concentrations were examined using 10-12 week old male Wistar rats. The animals were housed individually in an air conditioned room and 22±2° C. with a 12 hour light/12 hour dark cycle. Drinking water and a standard rodent maintenance diet (Trouw Nutrition, Belfast, Northern Ireland) were supplied ad libitum. Food was withdrawn for an 18 hour period prior to intraperitoneal injection of glucose alone (18 mmol/kq body weight) or in combination with either GIP or Tyr^1-glucitol GIP (10 nmol/kg). Test solutions were administered in a final volume of 8 ml/kg body weight. Blood samples were collected at 0, 15, 30 and 60 minutes from the cut tip of the tail of conscious rats into chilled fluoride/heparin microcentrifuge tubes (Sarstedt, Numbrecht, Germany). Samples were centrifuged using a Beckman microcentrifuge for about 30 seconds at 13,000 g. Plasma samples were aliquoted and stored at −20° C. prior to glucose and insulin determinations. All animal studies were done in accordance with the Animals (Scientific Procedures) Act 1986.
Analyses. Plasma glucose was assayed by an automated glucose oxidase procedure using a Beckman Glucose Analyzer II [33]. Plasma insulin was determined by dextran charcoal radioimmunoassay as described previously. Incremental areas under plasma glucose and insulin area under the curve (AUC) were calculated using a computer program (CAREA) employing the trapezoidal rule with baseline subtraction. Results are expressed as mean±SEM and values were compared using the Student's unpaired t-test.

[4] = 10 nmol/kg i.p. with glucose 18 mmol/kg, rats

T1 sequence (P22411 whole entry): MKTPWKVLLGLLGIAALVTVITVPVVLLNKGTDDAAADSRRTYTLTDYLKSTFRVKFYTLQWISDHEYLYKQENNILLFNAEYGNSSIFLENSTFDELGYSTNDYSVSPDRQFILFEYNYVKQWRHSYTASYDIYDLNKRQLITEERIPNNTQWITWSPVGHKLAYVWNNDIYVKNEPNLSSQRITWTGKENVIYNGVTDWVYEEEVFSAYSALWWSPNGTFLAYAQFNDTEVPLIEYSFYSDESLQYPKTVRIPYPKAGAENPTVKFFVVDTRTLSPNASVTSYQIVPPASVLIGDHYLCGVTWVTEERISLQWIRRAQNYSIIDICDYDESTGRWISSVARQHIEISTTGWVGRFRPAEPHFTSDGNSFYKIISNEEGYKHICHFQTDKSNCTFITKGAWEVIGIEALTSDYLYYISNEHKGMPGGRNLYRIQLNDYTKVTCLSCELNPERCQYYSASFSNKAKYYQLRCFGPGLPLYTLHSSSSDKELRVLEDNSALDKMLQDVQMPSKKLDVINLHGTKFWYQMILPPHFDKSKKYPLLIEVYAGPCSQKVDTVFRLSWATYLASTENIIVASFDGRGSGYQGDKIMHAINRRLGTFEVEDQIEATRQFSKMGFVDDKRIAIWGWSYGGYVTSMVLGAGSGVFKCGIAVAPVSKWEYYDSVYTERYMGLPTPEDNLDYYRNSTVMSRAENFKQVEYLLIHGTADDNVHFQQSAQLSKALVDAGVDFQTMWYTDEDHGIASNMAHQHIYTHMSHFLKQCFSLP

Substance: (Hyp^3)GIP: Glu^3-substituted form of GIP (hydroxyproline at position 3) (YA[Hyp]GTFISDYSIAMDKIHQQDFVNWLLAQKGKKNDWKHNITQ)
- inhibition of GIP-stimulated insulin secretion (BRIN-BD11 cells [1]): inhibited in a dose-dependent fashion

Substance: (Lys^3)GIP: Glu^3-substituted form of GIP (lysine at position 3) (YAKGTFISDYSIAMDKIHQQDFVNWLLAQKGKKNDWKHNITQ)
- inhibition of GIP-stimulated insulin secretion (BRIN-BD11 cells [1]): inhibited in a dose-dependent fashion

Substance: (Phe^3)GIP: Glu^3-substituted form of GIP (phenylalanine at position 3) (YAFGTFISDYSIAMDKIHQQDFVNWLLAQKGKKNDWKHNITQ)
- inhibition of GIP-stimulated insulin secretion (BRIN-BD11 cells [1]): inhibited in a dose-dependent fashion

Substance: (Trp^3)GIP: Glu^3-substituted form of GIP (tryptophan at position 3) (YAWGTFISDYSIAMDKIHQQDFVNWLLAQKGKKNDWKHNITQ)
- inhibition of GIP-stimulated insulin secretion (BRIN-BD11 cells [1]): inhibited in a dose-dependent fashion

Substance: (Tyr^3)GIP: Glu^3-substituted form of GIP (tyrosine at position 3) (YAYGTFISDYSIAMDKIHQQDFVNWLLAQKGKKNDWKHNITQ)
- inhibition of GIP-stimulated insulin secretion (BRIN-BD11 cells [1]): inhibited in a dose-dependent fashion

Substance: GIP(3-42): N-terminally truncated GIP, main DPP IV metabolite after removal of Tyr^1-Ala^2 (EGTFISDYSIAMDKIHQQDFVNWLLAQKGKKNDWKHNITQ; listed as Homo sapiens)
- inhibition of GIP-stimulated insulin secretion (BRIN-BD11 cells [1]): inhibited in a dose-dependent fashion

Substance: [X1]AEGTFISDYSIAMDKIHQQDFVNWLLAQKGKKNDWKHNITQ [Glycated GIP]
- insulin secretion from BRIN-BD11 cells (BRIN-BD11 cells [2]; 5.6 and 16.7 mM glucose, 10^-13 to 10^-8 M peptide): considerably greater insulinotropic response compared with native peptide
- insulin-releasing potency relative to GIP (BRIN-BD11 cells [2]; glucose-responsive clonal B-cells): several orders of magnitude greater than GIP
- stability on incubation with DPP IV (DPP IV; Example 2, 2-12 hours incubation): remained almost completely intact
- resistance to in vitro degradation with DPP IV relative to native GIP (DPP IV; Example 3, summary of Table 1): more resistant than native GIP
- % Intact peptide remaining after time (h) (DPP IV; incubation with DPP IV, 0 h): 100%
- remaining at 2 h, 1 mmol/l (DPP IV; isolated enzyme dpp iv, pH 7.8, incubation with DPP IV, 2 h, read-out: % Intact peptide remaining after time (h)): 100%
- remaining at 4 h, 1 mmol/l (DPP IV; isolated enzyme dpp iv, pH 7.8, incubation with DPP IV, 4 h, read-out: % Intact peptide remaining after time (h)): 100%
- remaining at 8 h, 1 mmol/l (DPP IV; isolated enzyme dpp iv, pH 7.8, incubation with DPP IV, 8 h, read-out: % Intact peptide remaining after time (h)): 100%
- remaining at 24 h, 1 mmol/l (DPP IV; isolated enzyme dpp iv, pH 7.8, incubation with DPP IV, 24 h, read-out: % Intact peptide remaining after time (h)): 100%
- % Intact peptide remaining after incubations with human plasma ([3]; 0 h): 100%
- effect of DPA on plasma degradation of the peptide ([3]; 24 hours in the presence of DPA): complete abolition of degradation
- % Intact peptide remaining after incubations with human plasma ([3]; 24 hours in the presence of DPA (diprotin A)): 100%
- degradation by human plasma ([3]; Example 2, 4 hours incubation): did not result in the formation of any detectable degradation fragments
- remaining at 2 h, 20 µg/ml ([3]; human, plasma, pH 7.8, 2 h, read-out: % Intact peptide remaining after incubations with human plasma): 100%
- remaining at 4 h, 20 µg/ml ([3]; human, plasma, pH 7.8, 4 h, read-out: % Intact peptide remaining after incubations with human plasma): 100%
- remaining at 8 h, 20 µg/ml ([3]; human, plasma, pH 7.8, 8 h, read-out: % Intact peptide remaining after incubations with human plasma): 100%
- remaining at 24 h, 20 µg/ml ([3]; human, plasma, pH 7.8, 24 h, read-out: % Intact peptide remaining after incubations with human plasma): 100%
- overall insulin response (AUC) compared with glucose alone (Wistar rats; 10 nmol/kg i.p. with glucose): significantly greater
- plasma insulin response (AUC) compared with GIP (Wistar rats; 10 nmol/kg i.p. with glucose): significantly greater than after GIP
- increase of antihyperglycemic action relative to GIP, estimated from AUC (Wistar rats; [4]): 38%
- increase of insulin-releasing action relative to GIP, estimated from AUC (Wistar rats; [4]): 62%
- plasma glucose AUC compared to GIP (Wistar rats; 10 nmol/kg i.p. with glucose, vs GIP): significantly lower
- plasma glucose concentrations and AUC compared with control group (Wistar rats; 10 nmol/kg i.p. with glucose, vs glucose alone, 0-60 min): significantly lower
